Series [1] concerns MoMSV-induced sarcomas. In words: microPET/CT in oncoretrovirus (MoMSV) sarcoma model of anti-tumor immunity. The protocol:
All the mice used in these studies were bred and maintained according to the guidelines of the Department of Laboratory Animal Medicine (DLAM) at the University of California, Los Angeles. For the oncoretrovirus-induced sarcoma model, C57/BL6 mice were challenged intramuscularly in the right triceps with the Moloney murine sarcoma and leukemia virus complex (MoMSV) in a volume of 100 uL of PBS as described previously^6. B6-MRL-Fas^1pr/J mice used for systemic autoimmunity studies were purchased from the Jackson Laboratory (stock number 000482). To monitor the immunosuppressive treatment, these mice were given intraperitoneal injections of dexamethasone (DEX, 10 mg/kg) at 24 hr intervals and were scanned by microPET/CT 24 hr after the last injection. Animals were anesthetized with 2% isoflurane, injected intravenously with 200 microCi [^18F]D-FAC and then scanned with microPET/CT; mice were sacrificed immediately after imaging. Organs were rapidly excised, weighed, and the radioactivity was measured in a well counter. After decay correction, results were expressed as percent of the injected dose of activity per gram of tissue (% ID/g). Other mice were anesthetized with 2% isoflurane and injected intravenously with 1 mCi [^18F]D-FAC. After 1 hr, mice were euthanized, embedded in 3% carboxymethyl cellulose (CMC, Sigma), and frozen in 100% ethanol with dry ice for 45 min. The 50 micron sections were cut using a whole body cryostat, (PMV, Stockholm, Sweden); samples were exposed overnight on BAS-TR2025 plates (Fujifilm Life Science, Stamford, Conn.). Imaging plates were read using a Fujibas-5000 phosphorimager (16 bit, 25 micron resolution; Fujifilm Life Science).
In this model, antigen-specific T cells primed by immunodominant epitopes encoded by viral gag and env genes rapidly expand in spleen and tumor draining lymph nodes (DLNs) and then traffic to the tumor lesion which is rejected over a period of 2-5 weeks^17,18. In fact, the kinetics of T cell responses against MoMSV-induced sarcomas have been studied extensively using conventional ex vivo approaches and our group has used PET reporter gene imaging to visualize tumor rejection in this model^17. To analyze whether the [^18F]D-FAC microPET/CT imaging can detect sites of localized immune activation, mice were scanned before and after the virus challenge.
To determine whether [^18F]D-FAC can provide unique information regarding localized immune activation via the afore-mentioned model, the mice imaged by [^18F]D-FAC were also scanned on consecutive days using [^18F]FDG and [^18F]FLT.

Series [2] is described as follows: biodistribution and radiation dosimetry in healthy human subjects. The series is classed as in vivo. As to the method:
[^18F]D-FAC was evaluated in humans to a preliminary degree, whereby we investigated the normal biodistribution and radiation dosimetry of [^18F]D-FAC in human subjects (FIG. 16). […] Emission scans were acquired 20, 48, and 76 min post injection and radiation dosimetry estimates were calculated using the Olinda® software. […] The radiation dosimetry estimates show high agreement with the dosimetry results obtained from the studies in mice. The dose-limiting organs were the urinary bladder wall and the kidneys.

Series [3] deals with lymphoma lesion. Nature of the series: PET scan of human subject with lymphoma lesion. Particulars: coronal PET image. The series is classed as in vivo. The text has this: FIG. 29 presents PET scan images of a human subject after injection of [^18F]D-FAC. […] The heterogeneous spleen 292 is visible.
In series [4] the test system is splenic CD8+T cells. In words: radioactivity in sorted splenic CD8+T cells from mice injected with probe. The series is classed as in vivo. Particulars: CD62LLOW/CD44HIGH vs CD62LHIGH/CD44LOW.
Text: To further investigate the cellular basis of elevated [^18F]D-FAC retention, splenic CD8+T cells from mice injected with [^18F]FAC were fractionated by flow cytometry into naïve (CD62LHIGH/CD44LOW) and effector populations (CD62LLOW/CD44HIGH).
Series [5] can be described thus: microPET/CT in Fas^1pr systemic autoimmunity model. The series is classed as in vivo, B6-MRL-Fas^1pr/J mice.
Series [6] has as its system L1210 wild type or 10K subcutaneous tumors. Nature of the series: PET of subcutaneous L1210 wild type and 10K tumors. Particulars: 4 days after injection. The series is classed as in vivo, SCID mice. As to the method:
To investigate whether [^18F]D-FAC PET can distinguish gemcitabine-sensitive cancer cells from the resistant cancer cells in vivo, mice were injected with L1210 wild type or 10K cells to establish subcutaneous tumors; mice were scanned with [^18F]FDG PET to confirm that implanted cells were viable and growing in vivo and [^18F]D-FAC PET scans were carried out to compare D-FAC accumulation in gemcitabine sensitive versus resistant cells. […] The mice were injected 4 days prior to imaging.
Mice were challenged with the MoMSV onco-retrovirus.

Series [7] has as its system murine B16 cells. Nature of the series: microPET/CT of implanted B16 melanoma. The series is classed as in vivo, C57BL/6 mice. Particulars: imaged 7 days after 1×10^5 cells subcutaneously. The protocol: (§1) In addition to immune diseases, [^18F]D-FAC may also be used to measure dysregulated nucleoside metabolism in cancer. To this end, we examined the utility of [^18F]D-FAC microPET in animal models representative of leukemia or lymphoma, melanoma, and glioma tumors (FIG. 12, where the images are 1 mm coronal sections from [^18F]D-FAC microPET/CT scans 1 hr after probe injection). In FIG. 12A, SCID mice were injected intravenously with Ba/F3 cells expressing p210 BCR-ABL and go on to develop aggressive disease with massive splenic infiltration that typically results in death within ˜15 days (mice shown were imaged on day 12). In FIG. 12B, the NOD SCID mice were transplanted with wild type total bone marrow cells infected with MSCV-GFP-IRES-P185 BCR-ABL retroviral stocks and the leukemic mice were imaged 28 days following transplantation. In FIG. 12C, C57BL/6 was injected subcutaneously with 1×10^5 B16 melanoma cells and imaged 7 days later. In FIG. 12D, SCID mice were injected subcutaneously with 1×10^6 U87 glioma cells and imaged 10 days later. […] [^18F]D-FAC PET also detected implanted murine B16 cells (representative of malignant melanoma) and human U87 cells (representative of glioma tumors). […]

The subject of series [8] is human U87 cells. In words: microPET/CT of implanted U87 glioma. The series is classed as in vivo, SCID mice. To be noted: imaged 10 days after 1×10^6 cells subcutaneously. As to the method:
as §1

From patent publication US8101740B2, “Positron emission tomography probes for imaging immune activation and selected cancers” (The Regents of the University of California, priority 2007, dated 2012) come the findings set out here.

Each structure is given as a SMILES string.

For `Nc1ccn([C@@H]2O[C@H](CO)[C@@H](O)[C@@H]2[18F])c(=O)n1` [[^18F]D-FAC, 1-(2′-deoxy-2′-[^18F]fluoro-β-D-arabinofuranosyl)cytosine], in series [1] (day 15, peak of anti-tumor immune response), the “accumulation in the spleen and tumor DLNs relative to baseline scans” value is on record as “significantly increased”. Moreover, the “accumulation in the tumor” value in series [1] (tumor) was 6.7±0.3 % ID/g. In addition, the “accumulation in the tumor DLNs” value in series [1] (tumor draining lymph nodes) is reported as 13±2.7 % ID/g. Also, the “accumulation in tumor over background (contralateral muscle tissue)” value in series [1] (tumor lesions) is on record as 1.9±0.3 % ID/g tumor over background. In series [2] (3 healthy male subjects), the “absorbed dose, heart wall” value came out at 5.92E-02 rem/mCi; the “absorbed dose, kidneys” value was determined as 1.06E-01 rem/mCi; the “absorbed dose, osteogenic cells” value stood at 6.69E-02 rem/mCi; the “absorbed dose, small intestine” value is given as 5.80E-02 rem/mCi. For the same molecule, in series [2] (3 healthy male subjects), the “absorbed dose, spleen” value is reported as 7.36E-02 rem/mCi; the “absorbed dose, urinary bladder wall” value is given as 2.06E-01 rem/mCi; the effective dose overall was 5.08E-02 rem/mCi. Moreover, the “retention in the GI tract in humans in contrast to mice” value in series [2] (human, in vivo) was “substantially lower”. In series [2] (scans 20, 48 and 76 min post injection), the “organs with the highest accumulation” value was “the bladder, the kidneys, the spleen, the salivary glands, and the heart”. Also, in series [3], the “concentration in lymph node” value is given as “high concentration”. Further, the “retention in effector CD8+T cells versus naïve cytotoxic T cells” value in series [4] is given as roughly 4 fold. The “mice with enlarged LNs on microPET scans” value in series [5] (Fas^1pr/J mice) was 9 out of 13. For the same molecule, in series [5] (wild type mice), the “mice with probe-positive LNs” value is listed as 2 out of 19. Moreover, the “retention/visualization in dCK deficient, gemcitabine resistant tumors” value in series [6] (L1210-10K) is “did not accumulate”. The “retention/visualization in dCK positive, gemcitabine sensitive tumors” value in series [6] (L1210 WT) is “clearly detectable”. Further, the “detection of implanted tumor cells by PET” value in series [7] was “detected”. For the same molecule, the “detection of implanted tumor cells by PET” value in series [8] was “detected”.
